Measured values as given in patent publication US9040530B2, “1,2,4-triazine-6-carboxamide kinase inhibitors” (Portola Pharmaceuticals, Inc., priority 2012, dated 2015).

These compounds were tested against T1, full length active recombinant SYK enzyme (Homo sapiens, UniProt P43405) (assay: Inhibition of Syk tyrosine phosphorylation activity (LANCE TR-FRET kinase assay)). Settings: 1 nM active SYK enzyme, 550 nM SYK-substrate, 100 μM ATP, 1 hour at room temperature.
T1 construct: full length active recombinant SYK enzyme (Millipore, Calif.); purchased Millipore
Assay type: biochemical
Method: The in vitro and in vivo human Syk activities of the inventive compounds can be determined by various procedures known in the art, such as a test for their ability to inhibit the activity of human plasma Syk.
Inhibition of Syk Tyrosine Phosphorylation Activity
SYK tyrosine phosphorylation activity is measured using the LANCE™ Technology developed by Perkin Elmer Life and Analytical Sciences (Boston, Mass.). LANCE™ refers to homogeneous time resolved fluorometry applications using techniques such as time-resolved fluorescence resonance energy transfer assay (TR-FRET) (see generally for procedures in Perkin Elmer Application Note—How to Optimize a Tyrosine Kinase Assay Using Time Resolved Fluorescence-Based LANCE Detection, wwww.perkinelmer.com/lifesciences). The assay principle involves detection of a phosphorylated substrate using energy transfer from a phosphospecific europium-labeled antibody to streptavidin-allophycocyanin as an acceptor.
Molecules are reconstituted in 30% DMSO and serially diluted 1:3 with the final dilution containing DMSO in the absence of the candidate molecule. The final DMSO concentration in the assay is 3%. Kinase assays are performed as a two part reaction. […] The second reaction involves termination of the kinase reaction and the simultaneous addition of the detection reagents-europium-labeled anti-phosphotyrosine reagent (Eu-W1024-PY100, Perkin Elmer, Boston, Mass.) and Streptavidin-Allophycocyanin detection reagent (SA-APC, Prozyme, CA). The kinase reaction is performed in a black U-bottom 96-well microtitre plate. […] The reaction is allowed to proceed for 1 hour at room temperature. The quench buffer contains 100 mM Tris pH 7.5, 300 mM […], 20 mM EDTA, 0.02% Brij35, and 0.5% BSA. The detection reagents are added to the reaction mixture at the following dilutions-1:500 for Eu-W1024-PY100 and 1:250 for SA-APC. The kinase reaction is terminated by the addition of 50 μL quench buffer containing the detection reagents. The detection is allowed to proceed for 1 hr at room temperature. Detection of the phosphorlated substrate in the absence and presence of inhibitors is measured in the TR-FRET instrument, Analyst HT (Molecular Probes, Sunnyvale, Calif.) and the condition for measurements are set up using CriterionHost Release 2.0 (Molecular Probes, Sunnyvale, Calif.). […] IC50s were derived by non-linear regression analysis.

Row | IC50 [nM] | Structure (SMILES)
1 | 1 to 10 | NC(=O)c1nnc(N[C@@H]2CCCC[C@@H]2N)nc1Nc1cccc(-c2ncccn2)c1 [Example 1, 3-((1R,2S)-2-aminocyclohexylamino)-5-(3-(pyrimidin-2-yl)phenylamino)-1,2,4-triazine-6-carboxamide]
2 | 100 to 1000 | NC(=O)c1nnc(N[C@@H]2CCCC(F)(F)[C@@H]2N)nc1Nc1cccc(-c2ncccn2)c1 [Example 2, 3-(((1R,2R)-2-amino-3,3-difluorocyclohexyl)amino)-5-((3-(pyrimidin-2-yl)phenyl)amino)-1,2,4-triazine-6-carboxamide]
3 | 1 to 10 | NC(=O)c1nnc(N[C@@H]2CCCC[C@@H]2N)nc1Nc1ccc(-c2ncccn2)cc1 [Example 3, 3-(((1R,2S)-2-aminocyclohexyl)amino)-5-((4-(pyrimidin-2-yl)phenyl)amino)-1,2,4-triazine-6-carboxamide]
4 | 1 to 10 | NC(=O)c1nnc(N[C@@H]2CCCC[C@@H]2N)nc1Nc1cccc(-n2cncn2)c1 [Example 5, 5-((3-(1H-1,2,4-triazol-1-yl)phenyl)amino)-3-(((1R,2S)-2-aminocyclohexyl)amino)-1,2,4-triazine-6-carboxamide]
5 | 1 to 10 | NC(=O)c1nnc(N[C@@H]2CCCC[C@@H]2N)nc1Nc1cccc(-n2cccn2)c1 [Example 6, 5-(3-(1H-pyrazol-1-yl)phenylamino)-3-((1R,2S)-2-aminocyclohexylamino)-1,2,4-triazine-6-carboxamide]
6 | 1 to 10 | NC(=O)c1nnc(N[C@@H]2CCCC[C@@H]2N)nc1Nc1cccc(-c2ncco2)c1 [Example 7, 3-(((1R,2S)-2-aminocyclohexyl)amino)-5-((3-(oxazol-2-yl)phenyl)amino)-1,2,4-triazine-6-carboxamide]
7 | 1 to 10 | Cc1ccc(Nc2nc(N[C@@H]3CCCC[C@@H]3N)nnc2C(N)=O)cc1 [Example 8, 3-(((1R,2S)-2-aminocyclohexyl)amino)-5-(p-tolylamino)-1,2,4-triazine-6-carboxamide]
8 | 10 to 100 | Cc1ccc(Nc2nc(N[C@@H]3CCOC[C@@H]3N)nnc2C(N)=O)cc1 [Example 9, 3-(((3R,4R)-3-aminotetrahydro-2H-pyran-4-yl)amino)-5-(p-tolylamino)-1,2,4-triazine-6-carboxamide]
9 | 10 to 100 | CC[C@@H](Nc1nnc(C(N)=O)c(Nc2ccc(C)cc2)n1)C(N)=O [Example 10, (R)-3-((1-amino-1-oxobutan-2-yl)amino)-5-(p-tolylamino)-1,2,4-triazine-6-carboxamide]
10 | < 1 | Cc1cccc(Nc2nc(N[C@@H]3CCCC[C@@H]3N)nnc2C(N)=O)c1 [Example 11, 3-(((1R,2S)-2-aminocyclohexyl)amino)-5-(m-tolylamino)-1,2,4-triazine-6-carboxamide]
11 | 10 to 100 | Cc1cccc(Nc2nc(N[C@@H]3CCCC(F)(F)[C@@H]3N)nnc2C(N)=O)c1 [Example 12, 3-(((1R,2R)-2-amino-3,3-difluorocyclohexyl)amino)-5-(m-tolylamino)-1,2,4-triazine-6-carboxamide]
12 | 10 to 100 | CC[C@@H](Nc1nnc(C(N)=O)c(Nc2cccc(C)c2)n1)C(N)=O [Example 13, (R)-3-((1-amino-1-oxobutan-2-yl)amino)-5-(m-tolylamino)-1,2,4-triazine-6-carboxamide]
13 | 100 to 1000 | NC(=O)c1nnc(N[C@@H]2CCCC[C@@H]2N)nc1Nc1cncc(F)c1 [Example 14, 3-(((1R,2S)-2-aminocyclohexyl)amino)-5-((5-fluoropyridin-3-yl)amino)-1,2,4-triazine-6-carboxamide]
14 | 100 to 1000 | CC[C@@H](Nc1nnc(C(N)=O)c(Nc2cncc(F)c2)n1)C(N)=O [Example 15, (R)-3-((1-amino-1-oxobutan-2-yl)amino)-5-((5-fluoropyridin-3-yl)amino)-1,2,4-triazine-6-carboxamide]
15 | 100 to 1000 | CC(C)C[C@@H](Nc1nnc(C(N)=O)c(Nc2cncc(F)c2)n1)C(N)=O [Example 16, (R)-3-((1-amino-4-methyl-1-oxopentan-2-yl)amino)-5-((5-fluoropyridin-3-yl)amino)-1,2,4-triazine-6-carboxamide]
16 | 1 to 10 | NC(=O)c1nnc(N[C@@H]2CCCC[C@@H]2N)nc1Nc1cccc(F)c1 [Example 17, 3-(((1R,2S)-2-aminocyclohexyl)amino)-5-((3-fluorophenyl)amino)-1,2,4-triazine-6-carboxamide]
17 | 10 to 100 | NC(=O)c1nnc(N[C@@H]2CCCC[C@@H]2N)nc1Nc1ccc(F)c(F)c1 [Example 18, 3-(((1R,2S)-2-aminocyclohexyl)amino)-5-((3,4-difluorophenyl)amino)-1,2,4-triazine-6-carboxamide]
18 | 1 to 10 | Cc1ccc(Nc2nc(N[C@@H]3CCCC[C@@H]3N)nnc2C(N)=O)cc1F [Example 19, 3-(((1R,2S)-2-aminocyclohexyl)amino)-5-((3-fluoro-4-methylphenyl)amino)-1,2,4-triazine-6-carboxamide]
19 | 1 to 10 | NC(=O)c1nnc(N[C@@H]2CCCC[C@@H]2N)nc1Nc1cc(F)cc(F)c1 [Example 20, 3-(((1R,2S)-2-aminocyclohexyl)amino)-5-((3,5-difluorophenyl)amino)-1,2,4-triazine-6-carboxamide]
20 | 1 to 10 | NC(=O)c1nnc(N[C@@H]2CCCC[C@@H]2N)nc1Nc1cc(F)cc(Cl)c1 [Example 21, 3-(((1R,2S)-2-aminocyclohexyl)amino)-5-((3-chloro-5-fluorophenyl)amino)-1,2,4-triazine-6-carboxamide]
21 | 1 to 10 | Cc1cc(F)cc(Nc2nc(N[C@@H]3CCCC[C@@H]3N)nnc2C(N)=O)c1 [Example 22, 3-(((1R,2S)-2-aminocyclohexyl)amino)-5-((3-fluoro-5-methylphenyl)amino)-1,2,4-triazine-6-carboxamide]
22 | 1 to 10 | NC(=O)c1nnc(N[C@@H]2CCCC[C@@H]2N)nc1Nc1cccc(Cl)c1 [Example 23, 3-(((1R,2S)-2-aminocyclohexyl)amino)-5-((3-chlorophenyl)amino)-1,2,4-triazine-6-carboxamide]
23 | 1 to 10 | NC(=O)c1nnc(N[C@@H]2CCCC[C@@H]2N)nc1Nc1ccc(F)c(Cl)c1 [Example 24, 3-(((1R,2S)-2-aminocyclohexyl)amino)-5-((3-chloro-4-fluorophenyl)amino)-1,2,4-triazine-6-carboxamide]
24 | 10 to 100 | NC(=O)c1nnc(N[C@@H]2CCCC[C@@H]2N)nc1Nc1ccc(F)cc1 [Example 25, 3-(((1R,2S)-2-aminocyclohexyl)amino)-5-((4-fluorophenyl)amino)-1,2,4-triazine-6-carboxamide]
25 | 1 to 10 | Cc1cc(Nc2nc(N[C@@H]3CCCC[C@@H]3N)nnc2C(N)=O)ccc1F [Example 26, 3-(((1R,2S)-2-aminocyclohexyl)amino)-5-((4-fluoro-3-methylphenyl)amino)-1,2,4-triazine-6-carboxamide]
26 | 1 to 10 | NC(=O)c1nnc(N[C@@H]2CCCC[C@@H]2N)nc1Nc1ccc(Cl)cc1 [Example 27, 3-(((1R,2S)-2-aminocyclohexyl)amino)-5-((4-chlorophenyl)amino)-1,2,4-triazine-6-carboxamide]
27 | 1 to 10 | CCC(=O)N1CCC(c2ccc(Nc3nc(N[C@@H]4CCCC[C@@H]4N)nnc3C(N)=O)cc2)CC1 [Example 28, 3-(((1R,2S)-2-aminocyclohexyl)amino)-5-((4-(1-propionylpiperidin-4-yl)phenyl)amino)-1,2,4-triazine-6-carboxamide]
28 | 10 to 100 | C[N+]1([O-])CCC(c2ccc(Nc3nc(N[C@@H]4CCCC[C@@H]4N)nnc3C(N)=O)cc2)CC1 (stereo partly drawn) [Example 29, 4-(4-((3-(((1R,2S)-2-aminocyclohexyl)amino)-6-carbamoyl-1,2,4-triazin-5-yl)amino)phenyl)-1-methylpiperidine 1-oxide]
29 | 1 to 10 | NC(=O)c1nnc(N[C@@H]2CCCC[C@@H]2N)nc1Nc1ccc(N2CCOCC2)c(F)c1 [Example 30, 3-(((1R,2S)-2-aminocyclohexyl)amino)-5-((3-fluoro-4-morpholinophenyl)amino)-1,2,4-triazine-6-carboxamide]
30 | 10 to 100 | CC[C@@H](Nc1nnc(C(N)=O)c(Nc2ccc(N3CCOCC3)c(F)c2)n1)C(N)=O [Example 31, (R)-3-((1-amino-1-oxobutan-2-yl)amino)-5-((3-fluoro-4-morpholinophenyl)amino)-1,2,4-triazine-6-carboxamide]
